{
  "source": "patent US10385034B2",
  "about": "“Flavonoid IL-17A inhibitors” (THE CLEVELAND CLINIC FOUNDATION, priority 2014, dated 2019)",
  "key": {"[1]": {"test_system": "IL-17A-induced epidermal hyperplasia", "test": "Intradermal injection of IL-17A (skin epidermal hyperplasia)", "format": "in vivo, mouse", "procedure": "Intradermal injection of IL-17A. The ears of 8-week WT C57BL/6 female mice were injected intradermally with 20 μl PBS, either alone or containing 500 ng recombinant mouse IL-17A with or without A18 (30 μg per mouse). After 7 days after injection, the mice ears were fixed in 10% formalin in PBS and stained with hematoxylin and eosin (H&E). Epidermal thickness was quantified by Image J.\nReal-time PCR. Total RNA was extracted from spinal cords and cultured astrocytes with TRIzol (Invitrogen) according to the manufacturer's instructions. All gene expression results are expressed as arbitrary units relative to expression of the gene encoding beta-actin."}, "[2]": {"test_system": "HDM-induced allergic airway disease", "test": "House dust mite (HDM)-induced asthma", "format": "in vivo", "settings": "C57BL/6 mice, A18 30 μg per mouse i.p. daily", "procedure": "Measurement of AHR. AHR was measured in mice in response to increasing doses of inhaled methacholine. Mice were anesthetized with i.p. pentobarbital sodium (60 mg/kg). After the intubation and the placement of a 19-gauge cannula through a tracheotomy incision, the cannula was affixed with a silk suture ligation. Mice were connected to a computer-controlled piston ventilator run at a rate of 150 breaths/min, a tidal volume of 0.2 ml, and a positive end-expiratory pressure of 2-3 cm H2O (Flexivent). Mice were then administered a muscle relaxant (pancuronium bromide, […]), and the lungs were expanded twice to total lung capacity at an amplitude pressure of 30 cm H2O. Each mouse was aerosolized with methacholine in saline at doses of 0 mg/ml, 12.5 mg/ml, 25 mg/ml, and 50 mg/ml, delivered over 10 s through an in-line nebulizer. Lung resistance (RL) was obtained through forced oscillation technique by FlexiVent 5.2 (Flexivent; Scireq) software. House dust mite (HDM)-induced asthma. WT C57BL/6 mice were sensitized intratracheally (i.t.) with HDM (Dermatophagoides farina, 100 μg per mouse, Greer Laboratories) on day 0 and subsequently challenged (i.t.) with HDM (100 μg per mouse) from day 7 for 5 days. […] All gene expression results are expressed as arbitrary units relative to expression of the gene encoding beta-actin."}, "[3]": {"target": "T1, recombinant human IL-17RA ectodomain (Homo sapiens, UniProt Q96F46)", "T1 construct": "The recombinant human IL-17RA ectodomain was expressed in baculovirus-infected Sf-9 cells; made in house; host or cells: baculovirus-infected Sf-9 cells", "T1 sequence (Q96F46 33-320 limits assumed)": "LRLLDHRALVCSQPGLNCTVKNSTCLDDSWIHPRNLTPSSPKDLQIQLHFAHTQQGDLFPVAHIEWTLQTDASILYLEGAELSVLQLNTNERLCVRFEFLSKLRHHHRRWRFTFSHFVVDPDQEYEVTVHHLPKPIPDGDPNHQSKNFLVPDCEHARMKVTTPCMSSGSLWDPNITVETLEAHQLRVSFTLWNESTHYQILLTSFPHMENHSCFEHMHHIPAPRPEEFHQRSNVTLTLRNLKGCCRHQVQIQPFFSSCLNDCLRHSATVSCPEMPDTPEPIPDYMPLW", "test": "Fluorescence binding measurement (fluorescence quenching)", "settings": "fluorescence-based method, IL-17RA in solution, 1 uM", "procedure": "Fluorescence binding measurement. The recombinant human IL-17RA ectodomain was expressed in baculovirus-infected Sf-9 cells and purified as described previously. Liu et al., Nat Commun 4, 1888 (2013). The compound A18 or A0 was obtained from NCI. The purified IL-17RA protein (final concentration at 1 uM) was mixed with various concentrations of compound A0 in the solution consisting of 20 mM Tris, pH 7.5, 150 mM NaCl, and 5% DMSO in a 96-well black flat-bottom microplate (Greiner Bio-One). The reaction mixtures were incubated at room temperature at 120 rpm for 10 min, and fluorescence intensity was measured on a 2300 EnSpire Multimode Plate Reader (PerkinElmer) with excitation (265 nm) and emission (336 nm) wavelengths for A18 or with excitation (240 nm) and emission (337 nm) wavelengths for A0. The fluorescence signal (relative fluorescence intensity) was obtained by subtracting the background fluorescence of buffer and compound A0, and plotted as a function of the concentration of compound A0. The fluorescence quenching was observed as a consequence of the protein-ligand interaction at dose-dependent concentrations of compound A0, and the binding constant of compound A0 to IL-17RA was estimated by one-site total binding fit model (GraphPad Prism)."}, "[4]": {"test_system": "IL-17A-induced intraperineal neutrophilia", "test": "Peritoneal administration of IL-17A (neutrophilia)", "format": "in vivo", "settings": "BALB/c mice, A18 30 μg per mouse i.p. co-injected with IL-17A 1 μg, 6 h", "procedure": "Peritoneal administration of IL-17A. Eight-week WT BALB/cJ female mice were subjected to intraperitoneal injection (i.p.) of PBS, 1 μg of IL-17A with or without A18 (30 μg per mouse). The peritoneal cavity was lavaged with 5 ml ice-cold PBS at 6 h post treatment. Peritoneal cells were counted and quantified by differential cell counting."}},
  "data": [
    {"compound": "Oc1cc(O)c2cc(O)c(-c3ccc(O)c(O)c3)[o+]c2c1.[Cl-]", "note": "[A18, 2-(3,4-Dihydroxyphenyl)-3,5,7-trihydroxy-1-benzopyrylium chloride]", "values": [
      {"measurement": "IL-17A-dependent epidermal hyperplasia", "setting": "[1]; C57Bl/6 ears, IL-17A 500 ng with A18 30 μg per mouse intradermal, 6 consecutive days", "result": "greatly reduced"},
      {"measurement": "Levels of C-myc, Pled and Steap4 in IL-17A-treated ears", "setting": "[1]; RT-PCR", "result": "attenuated"},
      {"measurement": "HDM-induced AHR", "setting": "[2]", "result": "reduced"},
      {"measurement": "HDM-induced inflammatory gene expression", "setting": "[2]", "result": "reduced"},
      {"measurement": "Kd", "setting": "[3]", "result": "~5", "unit": "µM"},
      {"measurement": "IL-17A-induced intraperineal neutrophilia", "setting": "[4]", "result": "greatly attenuated"}
    ]}
  ]
}
